In US20220324868A1, “Pyrazolone-Fused Pyrimidine Compound, and Preparation Method and Use Therefor” (SHANGHAI PHARMACEUTICALS HOLDING CO., LTD., priority 2019, published 2022):
Like-named read-outs stand apart in the source and are kept apart here.

Tests used:
[1] = target: T1, WEE1 kinase (Homo sapiens, UniProt P30291); test: Inhibitory effect on WEE1 kinase in vitro (ELISA); assay type: biochemical; conditions: ATP concentration of Km (12 μM), WEE1 0.15 ng/μL, 60 min
T1 construct: purchased CarnaBiosciences, Inc. 05-177
Procedure: I. Inhibitory Effect of Compound on WEE1 Kinase In Vitro
The tested compounds were screened on WEE1 kinase with ATP concentration of Km by ELISA. Three compounds were screened on WEE1 kinase to evaluate the kinase inhibitory activity of the tested compounds. In the detection process, the initial concentration of the tested compounds was all selected as 100 nM, and each compound was selected with 6 gradient dilution concentrations, the gradient dilution ratio was 4-fold, and two replicate wells were detected for each concentration, MK1775 was used as the standard control.
1. Coating substrate: 1) An appropriate volume of substrate storage solution protein tyrosinase (PTK) substrate (poly-Glu-Tyr) was taken, diluted 10 times with PBS, and the concentration was diluted from […]. The mixture was added to a high adsorption 96-well plate at 125 μL per well. The plate was placed in an incubator at 37° C. for overnight coating. 2) After 24 hours, the 96-well plate was taken out, the liquid in the 96-well plate was poured out, cleaned with washing buffer for 3 times, and the incubator at 37 was inverted and dried for 2 hours.
3. Enzyme reaction stage: 1) WEE1 kinase and ATP were prepared into 2× enzyme solution and 4× ATP solution respectively with 1× reaction buffer.
4. Reaction termination stage: 1) the reaction mixture in the plate was poured out, 200 μL of washing buffer was added to each well, and washed for 5 times; the primary antibody P-Tyr (PY99) (dilution ratio 1:2000) was added, 100 μL per well, at room temperature for 30 min. 2) The primary antibody in the plate was poured out, 200 μL of washing buffer was added to each well, and washed for 5 times; the second antibody Anti-mouse IgG HRP-linked Antibody (dilution ratio 1:2000) was added, 100 μL per well, at room temperature for 30 min. 3) The secondary antibody in the plate was poured out, washed 5 times with washing buffer, and TMB was added, 100 μL per well, and colored for 10-30 min, depending on the color depth. The reaction was terminated with 1N sulfuric acid before reading.
5. […] 2) Graphpad Prism 5.0 was used to fit Log(inhibitor) vs. response-Variable slope (four parameters) curves to the data, and the corresponding IC50 (half maximal inhibitory concentration) was calculated.

[2] = system: COLO 205 cells; test: Proliferation inhibition of COLO 205 cells (Luminescence ATP Detection, ATPlite); assay type: cell-based; conditions: Homo sapiens; p53-deficient cell line COLO 205, 72 hours
Procedure: (§1) I. Proliferation Inhibitory of the Compound on COLO 205 Cells and Hela Cells.
(§2) COLO205 cells, purchased from SIBS, generation P11; Hela purchased from ATCC, generation P13.
(§3) Drug treatment of cells: on the third day of the experiment, microplates were removed from the incubator, 9× compound were added to each well in the microplate, and 5 μL was added to each well, wherein there were 2 replicate wells for each drug concentration and 10 drug concentrations for each compound. According to different cell lines, the initial concentration of each compound was different, after the completion, the microplate was cultured at 37° C. and 5% CO2 for 72 hours.
(§4) Data collection: The microplates were removed from the incubator and equilibrated at room temperature for 30 minutes. 100 μL of ATPlite reaction mixture after room temperature equilibrium was added to each well, the solution was shaken at room temperature of 1300 rpm for 2 minutes, and then the microplate was placed in a HERAEUS Multifuge X1R centrifuge at 2000 rpm for 1 minute; after equilibrium at room temperature for 10 minutes, the fluorescence signal value was measured on EnVision™.
(§5) Calculation of cell viability: Cell viability(%)=signal value of administration/signal value of controlx 100%. Graphpad Prism 5.0 was used to fit Log(inhibitor) vs. response-Variable slope (four parameters) curves to the fluorescence signal values at each concentration, and the corresponding IC50 (half maximal inhibitory concentration) was calculated.

[3] = system: Hela cells; test: Proliferation inhibition of Hela cells (Luminescence ATP Detection, ATPlite); assay type: cell-based; conditions: Homo sapiens, 72 hours
Procedure: as §1, §2
Cell culture and inoculation: on the first day of the experiment, cells in normal culture were taken in their exponential growth state, digested and dispersed, the cell density was adjusted to 9×10^3 cells/mL, and 40 μL per well were inoculated into 384-well cell culture plates; after inoculation was completed, the microplates were placed at 37° C. and 5% CO2 for incubation.
as §3, with “second” for “third”
as §4, with “the” for “The”, “40” for “100”
as §5

T1 sequence (P30291 whole entry): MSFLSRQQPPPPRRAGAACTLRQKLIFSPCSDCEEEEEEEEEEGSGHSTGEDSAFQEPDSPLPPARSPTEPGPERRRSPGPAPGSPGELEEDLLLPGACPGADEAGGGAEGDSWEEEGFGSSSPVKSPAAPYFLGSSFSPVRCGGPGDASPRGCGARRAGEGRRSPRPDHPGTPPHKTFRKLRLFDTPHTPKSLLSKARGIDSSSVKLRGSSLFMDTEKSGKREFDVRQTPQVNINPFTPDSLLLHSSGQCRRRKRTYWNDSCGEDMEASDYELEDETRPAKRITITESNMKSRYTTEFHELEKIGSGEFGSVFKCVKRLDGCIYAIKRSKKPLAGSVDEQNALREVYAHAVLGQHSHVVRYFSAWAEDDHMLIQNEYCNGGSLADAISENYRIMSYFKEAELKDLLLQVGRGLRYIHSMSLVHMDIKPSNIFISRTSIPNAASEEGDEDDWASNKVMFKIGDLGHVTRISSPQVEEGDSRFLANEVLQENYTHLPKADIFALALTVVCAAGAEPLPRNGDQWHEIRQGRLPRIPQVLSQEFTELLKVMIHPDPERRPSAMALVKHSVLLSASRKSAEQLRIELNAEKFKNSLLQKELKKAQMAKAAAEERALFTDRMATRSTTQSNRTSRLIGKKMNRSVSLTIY

Row | Compound | IC50 ([1]; read-out: WEE1 IC50) [nM] | IC50 [2] [nM] | IC50 [3] [nM] | IC50 ([1]; WEE1 IC50, nM) [nM]
1 | C=CCn1c(=O)c2cnc(Nc3ccc(N4CC5(CCN(C)CC5)C4)cc3)nc2n1-c1ccc2c(n1)C(O)CC2 (stereo not drawn) [Compound I-10] | 8.59 | 920 | 206 | 
2 | C=CCn1c(=O)c2cnc(Nc3ccc(N4CC5(CCN(CC)CC5)C4)cc3)nc2n1-c1ccc2c(n1)C(O)CC2 (stereo not drawn) [Compound I-11] | 11.3 | 1190 | 317 | 
3 | C=CCn1c(=O)c2cnc(Nc3ccc(N4CCC5(CC4)CN(C)C5)cc3)nc2n1-c1ccc2c(n1)C(C)(O)CC2 (stereo not drawn) [Compound I-13, 2-allyl-1-(7-hydroxy-7-methyl-6,7-dihydro-5H-cyclopenta[b]pyridin-2-yl)-6-((4-(2-methyl-2,7-diazaspiro[3.5]nonan-7-yl)phenyl)amino)-1,2-dihydro-3H-pyrazolo[3,4-d]pyrimidin-3-one] | 3.41 | 886 | 190 | 
4 | C=CCn1c(=O)c2cnc(Nc3ccc(N4CC5(CCN(C)CC5)C4)cc3)nc2n1-c1ccc2c(n1)C(C)(O)CC2 (stereo not drawn) [Compound I-14, 2-allyl-1-(7-hydroxy-7-methyl-6,7-dihydro-5H-cyclopenta[b]pyridin-2-yl)-6-((4-(7-methyl-2,7-diazaspiro[3.5]nonan-2-yl)phenyl)amino)-1,2-dihydro-3H-pyrazolo[3,4-d]pyrimidin-3-one] | 2.81 | 363 | 192 | 
5 | C=CCn1c(=O)c2cnc(Nc3ccc(N4CCN(C)CC4)cc3)nc2n1-c1ccc2c(n1)C(C)(O)CC2 (stereo not drawn) [Compound I-16, 2-allyl-1-(7-hydroxy-7-methyl-6,7-dihydro-5H-cyclopenta[b]pyridin-2-yl)-6-((4-(4-methylpiperazin-1-yl)phenyl)amino)-1,2-dihydro-3H-pyrazolo[3,4-d]pyrimidin-3-one] |  | 1620 | 316 | 3.99
6 | C=CCn1c(=O)c2cnc(Nc3ccc(N4CCN(C)CC4)cc3)nc2n1-c1ccc2c(n1)C(C)(O)CCC2 (stereo not drawn) [Compound I-19, 2-allyl-1-(8-hydroxy-8-methyl-5,6,7,8-tetrahydroquinolin-2-yl)-6-((4-(4-methylpiperazin-1-yl)phenyl)amino)-1,2-dihydro-3H-pyrazolo[3,4-d]pyrimidin-3-one] |  | 944 | 170 | 1.89
7 | C=CCn1c(=O)c2cnc(Nc3ccc(N4CCN(C)CC4)cc3)nc2n1-c1ccc2c(n1)C(O)CCC2 (stereo not drawn) [Compound I-23] | 2.87 | 1670 | 534 | 
8 | C=CCn1c(=O)c2cnc(Nc3ccc(N4C[C@H]5CN(C)C[C@H]5C4)cc3)nc2n1-c1ccc2c(n1)C(C)(O)CCC2 (stereo partly drawn) [Compound I-32, 2-allyl-1-(8-hydroxy-8-methyl-5,6,7,8-tetrahydroquinolin-2-yl)-6-((4-((3aR,6aS)-5-methylhexahydropyrrolo[3,4-c]pyrrole-2(1H)-yl)phenyl)amino)-1,2-dihydro-3H-pyrazolo[3,4-d]pyrimidin-3-one] | 4.79 | 541 | 148 | 
9 | C=CCn1c(=O)c2cnc(Nc3ccc(N4C[C@H]5CNC[C@H]5C4)cc3)nc2n1-c1ccc2c(n1)C(C)(O)CCC2 (stereo partly drawn) [Compound I-33, 2-allyl-6-((4-((3aR, 6aS)hexahydropyrrolo[3,4-c]pyrrolo-2(1H)-yl)phenyl)amino)-1-(8-hydroxy-8-methyl-5,6,7,8-tetrahydroquinolin-2-yl)-1,2-dihydro-3H-pyrazolo[3,4-d]pyrimidin-3-one] | 3.48 | 891 | 200 | 
10 | C=CCn1c(=O)c2cnc(Nc3ccc(C4CCC(N(C)C)CC4)cc3)nc2n1-c1ccc2c(n1)C(C)(O)CC2 (stereo not drawn) [Compound I-34] | 4.79 | 1580 | 214 | 
11 | C=CCn1c(=O)c2cnc(Nc3ccc(N4CC5CN(C)CC5C4)cc3)nc2n1-c1ccc2c(n1)C(C)(O)CC2 (stereo not drawn) [Compound I-35, 2-allyl-1-(7-hydroxy-7-methyl-6,7-dihydro-5H-cyclopenta[b]pyridin-2-yl)-6-((4-(-5-methylhexahydropyrrolo[3,4-c]pyrrol-2(1H)-yl)phenyl)amino)-1,2-dihydro-3H-pyrazolo[3,4-d]pyrimidin-3-one] | 3.15 | 473 | 147 | 
12 | C=CCn1c(=O)c2cnc(Nc3ccc(N4C[C@@H]5CN(C6CCC6)C[C@@H]5C4)cc3)nc2n1-c1ccc2c(n1)C(O)CC2 (stereo partly drawn) [Compound I-38] | 2.43 | 451 | 134 | 
13 | C=CCn1c(=O)c2cnc(Nc3ccc(N4C[C@@H]5CN(C(C)C6CC6)C[C@@H]5C4)cc3)nc2n1-c1ccc2c(n1)C(O)CC2 (stereo partly drawn) [Compound I-41] | 10.6 | 786 | 224 | 
